Results published in ChEMBL document CHEMBL1201862, “PubChem BioAssay data set” (2004).
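Interpolation was linear, between the two tested concentrations surrounding the appropriate level; five concentrations were tested over 48 hours in 96-well plates. GI50 is the concentration that inhibits growth by half.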 Activity calls are given as the source filed them. Rule as the data show it: active = GI50 up to about 1.1 µM and inactive = higher.

Columns and labels:
Experiment in all cases: inhibition of tumour cell growth, NCI panel, 48 h
SF-539 = test system: SF-539
SK-MEL-5 = test system: SK-MEL-5
SK-OV-3 = test system: SK-OV-3
EKVX = test system: EKVX
UACC-62 = test system: UACC-62
SW-620 = test system: SW-620
RXF 393 = test system: RXF 393
NCI-H460 = test system: NCI-H460
MDA-MB-435 = test system: MDA-MB-435
MOLT-4 = test system: MOLT-4
M14 = test system: M14
NCI-H522 = test system: NCI-H522
UACC-257 = test system: UACC-257
PC-3 = test system: PC-3
OVCAR-4 = test system: OVCAR-4
UO-31 = test system: UO-31
A549 = test system: A549
NCI-H23 = test system: NCI-H23
NCI-H226 = test system: NCI-H226
OVCAR-8 = test system: OVCAR-8
SK-MEL-2 = test system: SK-MEL-2
SK-MEL-28 = test system: SK-MEL-28
LOX IMVI = test system: LOX IMVI
CAKI-1 = test system: CAKI-1
A498 = test system: A498
786-0 = test system: 786-0
MCF7 = test system: MCF7
OVCAR-3 = test system: OVCAR-3
BT-549 = test system: BT-549
MDA-N = test system: MDA-N
NCI/ADR-RES = test system: NCI/ADR-RES
MDA-MB-231 = test system: MDA-MB-231
T47D = test system: T47D
COLO 205 = test system: COLO 205
HL-60 = test system: HL-60
HCT-15 = test system: HCT-15
SNB-19 = test system: SNB-19
ACHN = test system: ACHN
CCRF-CEM = test system: CCRF-CEM
HCT-116 = test system: HCT-116
SN12C = test system: SN12C
RPMI-8226 = test system: RPMI-8226
HOP-92 = test system: HOP-92
Malme-3M = test system: Malme-3M
HT-29 = test system: HT-29
HCC 2998 = test system: HCC 2998
DU-145 = test system: DU-145
IGROV-1 = test system: IGROV-1
SR = test system: SR
U-251 = test system: U-251
K562 = test system: K562
OVCAR-5 = test system: OVCAR-5
SF-295 = test system: SF-295
KM12 = test system: KM12
Hs-578T = test system: Hs-578T
HOP-62 = test system: HOP-62
SF-268 = test system: SF-268
SNB-75 = test system: SNB-75
TK-10 = test system: TK-10

N#CC1C(=O)N(c2ccccc2)NC12OC(=O)c1ccncc12 (stereo not drawn)
GI50 (SF-539): > 20 µM (inactive)
GI50 (SK-MEL-5): > 20 µM (inactive)
GI50 (SK-OV-3): > 20 µM (inactive)
GI50 (EKVX): > 20 µM (inactive)
GI50 (UACC-62): > 20 µM (inactive)
GI50 (SW-620): > 20 µM (inactive)
GI50 (RXF 393): > 20 µM (inactive)
GI50 (NCI-H460): > 20 µM (inactive)
GI50 (MDA-MB-435): > 20 µM (inactive)
GI50 (MOLT-4): > 20 µM (inactive)
GI50 (M14): > 20 µM (inactive)
GI50 (NCI-H522): > 20 µM (inactive)
GI50 (UACC-257): > 20 µM (inactive)
GI50 (PC-3): > 20 µM (inactive)
GI50 (OVCAR-4): > 20 µM (inactive)
GI50 (UO-31): > 20 µM (inactive)
GI50 (A549): > 20 µM (inactive)
GI50 (NCI-H23): > 20 µM (inactive)
GI50 (NCI-H226): > 20 µM (inactive)
GI50 (OVCAR-8): > 20 µM (inactive)
GI50 (SK-MEL-2): > 20 µM (inactive)
GI50 (SK-MEL-28): > 20 µM (inactive)
GI50 (LOX IMVI): > 20 µM (inactive)
GI50 (CAKI-1): > 20 µM (inactive)
GI50 (A498): > 20 µM (inactive)
GI50 (786-0): > 20 µM (inactive)
GI50 (MCF7): > 20 µM (inactive)
GI50 (OVCAR-3): > 20 µM (inactive)
GI50 (BT-549): > 20 µM (inactive)
GI50 (MDA-N): > 20 µM (inactive)
GI50 (NCI/ADR-RES): > 20 µM (inactive)
GI50 (MDA-MB-231): > 20 µM (inactive)
GI50 (T47D): > 20 µM (inactive)
GI50 (COLO 205): > 20 µM (inactive)
GI50 (HL-60): > 20 µM (inactive)
GI50 (HCT-15): > 20 µM
GI50 (SNB-19): > 20 µM (inactive)
GI50 (ACHN): > 20 µM (inactive)
GI50 (CCRF-CEM): > 20 µM (inactive)
GI50 (HCT-116): > 20 µM (inactive)
GI50 (SN12C): > 20 µM (inactive)
GI50 (RPMI-8226): > 20 µM (inactive)
GI50 (HOP-92): > 20 µM (inactive)
GI50 (Malme-3M): > 20 µM (inactive)
GI50 (HT-29): > 20 µM (inactive)
GI50 (HCC 2998): > 20 µM (inactive)
GI50 (DU-145): > 20 µM (inactive)
GI50 (IGROV-1): > 20 µM (inactive)
GI50 (SR): > 20 µM (inactive)
GI50 (U-251): > 20 µM (inactive)
GI50 (K562): > 20 µM (inactive)
GI50 (OVCAR-5): > 20 µM (inactive)
GI50 (SF-295): > 20 µM (inactive)

Cc1ccc(NC(=O)/C(Cc2nc3ccc([N+](=O)[O-])cc3nc2O)=N\NC(=O)C[n+]2ccccc2)c(C)c1
GI50 (KM12): 74.6 µM (inactive)
GI50 (SF-539): 77.1 µM (inactive)
GI50 (SK-MEL-5): 16.9 µM (inactive)
GI50 (SK-OV-3): 22.4 µM (inactive)
GI50 (EKVX): 26.7 µM (inactive)
GI50 (UACC-62): 55.1 µM (inactive)
GI50 (SW-620): 61.1 µM (inactive)
GI50 (RXF 393): 4.06 µM (inactive)
GI50 (NCI-H460): 26.8 µM (inactive)
GI50 (MDA-MB-435): 97.3 µM (inactive)
GI50 (MOLT-4): 30.7 µM (inactive)
GI50 (M14): 89.1 µM (inactive)
GI50 (NCI-H522): 19.4 µM (inactive)
GI50 (UACC-257): 49.4 µM (inactive)
GI50 (PC-3): 39 µM (inactive)
GI50 (OVCAR-4): 23 µM (inactive)
GI50 (UO-31): 18.4 µM (inactive)
GI50 (Hs-578T): 86.1 µM (inactive)
GI50 (A549): 23.3 µM (inactive)
GI50 (NCI-H23): 65.6 µM (inactive)
GI50 (NCI-H226): 74.6 µM (inactive)
GI50 (OVCAR-8): 30.3 µM (inactive)
GI50 (SK-MEL-2): 39.9 µM (inactive)
GI50 (SK-MEL-28): 77.4 µM (inactive)
GI50 (LOX IMVI): 59 µM (inactive)
GI50 (CAKI-1): 34.7 µM (inactive)
GI50 (HOP-62): 38.9 µM (inactive)
GI50 (786-0): 27.9 µM (inactive)
GI50 (MCF7): 38.5 µM (inactive)
GI50 (OVCAR-3): 23.1 µM (inactive)
GI50 (BT-549): > 100 µM (inactive)
GI50 (MDA-N): > 100 µM (inactive)
GI50 (NCI/ADR-RES): 40.9 µM (inactive)
GI50 (SF-268): 67.5 µM (inactive)
GI50 (MDA-MB-231): 18.4 µM (inactive)
GI50 (COLO 205): 43.5 µM (inactive)
GI50 (HL-60): 30 µM (inactive)
GI50 (HCT-15): 49.4 µM
GI50 (SNB-19): 83.4 µM (inactive)
GI50 (ACHN): 20.5 µM (inactive)
GI50 (CCRF-CEM): 26.6 µM (inactive)
GI50 (SNB-75): 97.3 µM (inactive)
GI50 (HCT-116): 36.2 µM (inactive)
GI50 (TK-10): 21.2 µM (inactive)
GI50 (SN12C): 32.1 µM (inactive)
GI50 (HOP-92): 37.5 µM (inactive)
GI50 (HT-29): > 100 µM (inactive)
GI50 (HCC 2998): > 100 µM (inactive)
GI50 (DU-145): 32.1 µM (inactive)
GI50 (IGROV-1): 35.4 µM (inactive)
GI50 (U-251): 53.6 µM (inactive)
GI50 (OVCAR-5): > 100 µM (inactive)
GI50 (SF-295): 58.1 µM (inactive)

C[N+]1(C)C(c2ccccc2)C(=O)O[B@-]1(F)c1ccccc1 (stereo partly drawn)
GI50 (SK-MEL-5): > 100 µM (inactive)
GI50 (SK-OV-3): > 100 µM (inactive)
GI50 (EKVX): > 100 µM (inactive)
GI50 (UACC-62): > 100 µM (inactive)
GI50 (SW-620): > 100 µM (inactive)
GI50 (NCI-H460): > 100 µM (inactive)
GI50 (MDA-MB-435): > 100 µM (inactive)
GI50 (MOLT-4): > 100 µM (inactive)
GI50 (M14): > 100 µM (inactive)
GI50 (UACC-257): > 100 µM (inactive)
GI50 (PC-3): > 100 µM (inactive)
GI50 (OVCAR-4): > 100 µM (inactive)
GI50 (UO-31): > 100 µM (inactive)
GI50 (A549): > 100 µM (inactive)
GI50 (NCI-H23): > 100 µM (inactive)
GI50 (NCI-H226): > 100 µM (inactive)
GI50 (OVCAR-8): > 100 µM (inactive)
GI50 (SK-MEL-28): > 100 µM (inactive)
GI50 (LOX IMVI): > 100 µM (inactive)
GI50 (A498): 25.7 µM (inactive)
GI50 (HOP-62): > 100 µM (inactive)
GI50 (786-0): > 100 µM (inactive)
GI50 (MCF7): > 100 µM (inactive)
GI50 (OVCAR-3): > 100 µM (inactive)
GI50 (BT-549): > 100 µM (inactive)
GI50 (MDA-N): > 100 µM (inactive)
GI50 (NCI/ADR-RES): > 100 µM (inactive)
GI50 (SF-268): > 100 µM (inactive)
GI50 (MDA-MB-231): > 100 µM (inactive)
GI50 (T47D): > 100 µM (inactive)
GI50 (COLO 205): > 100 µM (inactive)
GI50 (HL-60): > 100 µM (inactive)
GI50 (HCT-15): > 100 µM
GI50 (SNB-19): > 100 µM (inactive)
GI50 (ACHN): > 100 µM (inactive)
GI50 (CCRF-CEM): > 100 µM (inactive)
GI50 (SNB-75): 60.3 µM (inactive)
GI50 (HCT-116): > 100 µM (inactive)
GI50 (TK-10): > 100 µM (inactive)
GI50 (SN12C): > 100 µM (inactive)
GI50 (RPMI-8226): > 100 µM (inactive)
GI50 (HOP-92): 88.1 µM (inactive)
GI50 (Malme-3M): > 100 µM (inactive)
GI50 (HT-29): > 100 µM (inactive)
GI50 (HCC 2998): > 100 µM (inactive)
GI50 (DU-145): > 100 µM (inactive)
GI50 (IGROV-1): > 100 µM (inactive)
GI50 (SR): > 100 µM (inactive)
GI50 (U-251): > 100 µM (inactive)
GI50 (K562): > 100 µM (inactive)
GI50 (OVCAR-5): > 100 µM (inactive)
GI50 (SF-295): > 100 µM (inactive)
